Tested on: MES-induced seizures
Test: MES seizure test, CF-1 mice, compounds given i.p. as solution
Assay type: in vivo
Description: MES assays were performed at the Department of Neurology at the University of California with CF-1 mice. This study was approved by the University of California, Davis, Animal Use and Care Committee and conducted in accordance with the guidelines of Animal Use and Care of the National Institutes of Health and the University of California. For these assays, stock solutions of SKA-19 (5 mg/ml) were prepared in 5% CremophorEL (Sigma-Aldrich, St. Louis, Mo., USA) and 95% saline, diluted further with saline, and SKA-19 was administered i.p. in a volume of 10 ml/kg body weight. Animals were subjected to a 0.2-s, 60-Hz electrical stimulus through corneal electrodes (5 mm diameter stainless steel balls). The electroshock unit was adjusted to deliver a constant current of 50 mA. Immediately before stimulation, the corneal electrodes were wetted with saline to provide good electrical contact. Animals failing to show tonic hindlimb extension were scored as protected (Kokate et al., 1994).
The mouse maximal electroshock (MES) and 6 Hz seizure models were used. Motor toxicity was assessed using a modification of the horizontal screen test. ED50 values in the seizure models and TD50 values in the toxicity test were determined by nonlinear fitting of dose-response curves. […] Drugs solutions were injected intraperitoneally 10 min prior to administration of the electrical stimulus in a volume of 10 ml/kg body weight.

## Nc1nc2ccc(SC(F)(F)F)cc2s1 [SKA-19, 6-((trifluoromethyl)thio)benzo[d]thiazol-2-amine]
10 mg/kg i.p. as solution
  duration of full protection: 2.5 h
5 and 6 mg/kg i.p. as solution
  duration of significant seizure protection: at least 90 min
MES test, 10 mg/kg i.p. as solution
  duration of protective activity: up to 4 h
Mus musculus, ip, 10 min, i.p. as solution, 10 min time point, read-out: ED50, seizure protection in the MES test
  ED50: 4.93 mg/kg
i.p. as solution
  onset of protection from seizures after application: ≤ 5 min
i.p. as solution, 10 min time point
  protective index PI (TD50/ED50): 3.2
